Earlier results on one molecule are cited in patent US11957681B2, “Liquid dosage forms of Imatinib” (SHORLA PHARMA LTD., priority 2018, dated 2024).

The conditions of data set [1]: compared with Imatinib mesylate.

As for `Cc1ccc(NC(=O)c2ccc(CN3CCNCC3)cc2)cc1Nc1nccc(-c2cccnc2)n1` [N-desmethyl derivative], for the setting “circulating metabolite”, the “Share of the AUC for Imatinib mesylate” value is reported as “about 15%”. Further, for the setting “imatinib mesylate orally administered”, the Elimination half-life was roughly 40 h. Also, in data set [1], the Potency in vitro entry is “potency similar to Imatinib mesylate”.
